# Data as given in patent EP4653437A2 (Innovo Therapeutics Inc., priority 2023, dated 2024).
# Biological target: T1, human 15-PGDH (Homo sapiens, UniProt P15428)
# T1 construct: purchased R&D System 5660-DH
# T1 sequence (P15428 1-266): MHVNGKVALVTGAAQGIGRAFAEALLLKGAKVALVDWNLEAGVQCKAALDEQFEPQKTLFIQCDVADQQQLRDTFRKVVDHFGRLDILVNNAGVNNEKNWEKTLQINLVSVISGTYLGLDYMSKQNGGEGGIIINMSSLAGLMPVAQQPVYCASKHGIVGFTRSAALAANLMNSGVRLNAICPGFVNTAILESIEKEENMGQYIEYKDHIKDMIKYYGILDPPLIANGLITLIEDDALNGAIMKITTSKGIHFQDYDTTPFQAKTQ
# Assay: Evaluation of 15-PGDH inhibitory activity (fluorescence enzyme assay, NAD+/PGE2)
# Type: biochemical
# Settings: human 15-PGDH enzyme, fluorescence Vmax
# Protocol: 15-PGDH inhibition activity of Example compounds was measured as follows. 6.7 ng of human 15-PGDH (R&D System# 5660-DH) enzyme (10 µL) was added to a black 96 well plate, 60 µL of buffer (50 mM Tris-HCl, pH 7.5, 0.01% Tween 20) was added, and 10 µL of 200 µM β-Nicotinamide adenine dinucleotide sodium salt (Sigma, Cat# N0632-5G) was added. 10 µL of (10x) compound solution in DMSO was added and reacted for 10 minutes at room temperature.
row,SMILES,IC50 [nM]
1,"O=C(c1cc2nc(-c3ccc(Cl)cc3)ccc2[nH]1)N1CCCCC1 [Example 180, (5-(4-chlorophenyl)-1H-pyrrolo[3,2-b]pyridin-2-yl)(piperidin-1-yl)methanone]",100 to 1000
2,"O=C(c1cc2nc(-c3ccc4ccccc4c3)ccc2[nH]1)N1CCCCC1 [Example 189, (5-(naphthalen-2-yl)-1H-pyrrolo[3,2-b]pyridin-2-yl)(piperidin-1-yl)methanone]",> 1000
3,"O=C(c1cc2nc(-c3ccc(O)c(Cl)c3)ccc2[nH]1)N1CCCCC1 [Example 186, (5-(3-chloro-4-hydroxyphenyl)-1H-pyrrolo[3,2-b]pyridin-2-yl)(piperidin-1-yl)methanone]",100 to 1000
4,"Cc1nn(C)c(C)c1S(=O)(=O)Nc1cccc2c(C(=O)N3CCCCC3)cnn12 [Example 240, 1,3,5-trimethyl-N-[3-(piperidine-1-carbonyl)pyrazolo[1,5-a]pyridin-7-yl]pyrazole-4-sulfonamide]",> 1000
5,"O=C(c1cc2c(-c3ccc4c(c3)OCO4)ncnc2[nH]1)N1CCCCC1 [Example 177, (4-(benzo[d][1,3]dioxol-5-yl)-7H-pyrrolo[2,3-d]pyrimidin-6-yl)(piperidin-1-yl)methanone]",> 1000
6,"COc1ccc(-c2cccc3c(C(=O)N4CCCCC4)nnn23)cc1 [Example 168, (7-(4-methoxyphenyl)-[1,2,3]triazolo[1,5-a]pyridin-3-yl)(piperidin-1-yl)methanone]",100 to 1000
7,"O=C(c1cc2ncc(-c3ccc4c(c3)OCO4)cc2[nH]1)N1CCCCC1 [Example 172, (6-(benzo[d][1,3]dioxol-5-yl)-1Hpyrrolo[3,2-b]pyridin-2-yl)(piperidin-1-yl)methanone]",> 1000
8,"Nc1ccc(-c2cccn3c(C(=O)N4CCCCC4)cnc23)cc1 [Example 164, (8-(4-aminophenyl)imidazo[1,2-a]pyridin-3-yl)(piperidin-1-yl)methanone]",> 1000
9,"O=C(c1cc2nc(-c3ccc4c(c3)OCO4)ncc2[nH]1)N1CCCCC1 [Example 187, (2-(benzo[d][1,3]dioxol-5-yl)-5H-pyrrolo[3,2-d]pyrimidin-6-yl)(piperidin-1-yl)methanone]",100 to 1000
10,"COc1ccc(-c2ccc3[nH]c(C(=O)N4CCCCC4)cc3n2)cc1 [Example 179, (5-(4-methoxyphenyl)-1H-pyrrolo[3,2-b]pyridin-2-yl)(piperidin-1-yl)methanone]",100 to 1000
11,"O=C(c1cc2nc(-c3coc4ccccc34)ccc2[nH]1)N1CCCCC1 [Example 188, (5-(benzofuran-3-yl)-1H-pyrrolo[3,2-b]pyridin-2-yl)(piperidin-1-yl)methanone]",100 to 1000
12,"O=C(c1cc2nc(-c3ccc(F)cc3)ccc2[nH]1)N1CCCCC1 [Example 182, (5-(4-fluorophenyl)-1H-pyrrolo[3,2-b]pyridin-2-yl)(piperidin-1-yl)methanone]",100 to 1000
13,"O=C(c1cc2nc(-c3ccncc3)ccc2[nH]1)N1CCCCC1 [Example 184, piperidin-1-yl(5-(pyridin-4-yl)-1H-pyrrolo[3,2-b]pyridin-2-yl)methanone]",100 to 1000
14,O=C(c1cnn2c(-c3ccccc3)cccc12)N1CCCCC1 [Example 1],≤ 100
15,"O=C(c1cnn2c(-c3ccccc3)cccc12)C1CCCCC1 [Example 158, cyclohexyl(7-phenylpyrazolo[1,5-a]pyridin-3-yl)methanone]",100 to 1000
16,"Cc1cc(-c2ccnc(Cl)c2)c2ncc(C(=O)N3CCCCC3)n2c1 [Example 166, (8-(2-chloropyridin-4-yl)-6-methylimidazo[1,2-a]pyridin-3-yl)(piperidin-1-yl)methanone]",100 to 1000
17,"Cc1cc(-c2cccc(Cl)c2)c2ncc(C(=O)N3CCCCC3)n2c1 [Example 165, (8-(3-chlorophenyl)-6-methylimidazo[1,2-a]pyridin-3-yl)(piperidin-1-yl)methanone]",100 to 1000
18,"O=C(c1cc2nc(-c3ccoc3)ccc2[nH]1)N1CCCCC1 [Example 183, (5-(furan-3-yl)-1H-pyrrolo[3,2-b]pyridin-2-yl)(piperidin-1-yl)methanone]",> 1000
19,"CN1Cc2cc(-c3cccc4c(C(=O)N5CCCCC5)cnn34)ccc2C1=O [Example 144, 2-methyl-5-(3-(piperidine-1-carbonyl)pyrazolo[1,5-a]pyridin-7-yl)isoindolin-1-one]",≤ 100

# Further lines, results first:
row,IC50 [nM],SMILES
1,≤ 100,"Cn1ccc2ccc(-c3cccc4c(C(=O)N5CCCCC5)cnn34)cc2c1=O [Example 135, 2-methyl-7-(3-(piperidine-1-carbonyl)pyrazolo[1,5-a]pyridin-7-yl)isoquinolin-1(2H)-one]"
2,≤ 100,"O=C(c1cnn2c(-c3cccc4ccccc34)cccc12)N1CCCCC1 [Example 128, (7-(naphthalen-1-yl)pyrazolo[1,5-a]pyridin-3-yl)(piperidin-1-yl)methanone]"
3,≤ 100,"COc1ccc(-c2ccc3c(C(=O)N4CCCCC4)cnn3c2)cc1 [Example 171, (6-(4-methoxyphenyl)pyrazolo[1,5-a]pyridin-3-yl)(piperidin-1-yl)methanone]"
4,≤ 100,"O=C(c1cnn2c(-c3cc4ccccc4o3)cccc12)N1CCCCC1 [Example 123, (7-(benzofuran-2-yl)pyrazolo[1,5-a]pyridin-3-yl)(piperidin-1-yl)methanone]"
5,≤ 100,"COc1ccc(-c2cccc3c(C(=O)N4CCCCC4)cnn23)cc1OC [Example 24, (7-(3,4-dimethoxyphenyl)pyrazolo[1,5-a]pyridin-3-yl)(piperidin-1-yl)methanone]"
6,≤ 100,"O=C(Cc1cccnc1)Nc1ccc(-c2cccc3c(C(=O)N4CCCCC4)cnn23)cn1 [Example 106, N-(5-(3-(piperidine-1-carbonyl)pyrazolo[1,5-a]pyridin-7-yl)pyridin-2-yl)-2-(pyridin-3-yl)acetamide]"
7,≤ 100,"O=C(c1cnn2c(-c3ccc4[nH]ccc4c3)cccc12)N1CCCCC1 [Example 126, (7-(1H-indol-5-yl)pyrazolo[1,5-a]pyridin-3-yl)(piperidin-1-yl)methanone]"
8,≤ 100,"O=C(c1cnn2c(-c3cccc([N+](=O)[O-])c3)cccc12)N1CCCCC1 [Example 5, (7-(3-nitrophenyl)pyrazolo[1,5-a]pyridin-3-yl)(piperidin-1-yl)methanone]"
9,≤ 100,"CN1CCc2cc(-c3cccc4c(C(=O)N5CCCCC5)cnn34)ccc2C1=O [Example 137, 2-methyl-6-(3-(piperidine-1-carbonyl)pyrazolo[1,5-a]pyridin-7-yl)-3,4-dihydroisoquinolin-1(2H)-one]"
10,≤ 100,"O=C(c1cc2nc(-c3ccc4c(c3)OCO4)ccc2[nH]1)N1CCCCC1 [Example 173, (5-(benzo[d][1,3]dioxol-5-yl)-1H-pyrrolo[3,2-b]pyridin-2-yl)(piperidin-1-yl)methanone]"
11,≤ 100,"O=C(c1cnc2c(-c3ccc([N+](=O)[O-])cc3)cccn12)N1CCCCC1 [Example 163, (8-(4-nitrophenyl)imidazo[1,2-a]pyridin-3-yl)(piperidin-1-yl)methanone]"
12,≤ 100,"O=C(c1cncc(-c2cccc3c(C(=O)N4CCCCC4)cnn23)c1)N1CC(F)(F)C1 [Example 44, (3,3-difluoroazetidin-1-yl)(5-(3-(piperidine-1-carbonyl)pyrazolo[1,5-a]pyridin-7-yl)pyridin-3-yl)methanone]"
13,≤ 100,"CC(C)(C)OC(=O)N1CCN(C(=O)c2cccc(-c3cccc4c(C(=O)N5CCCCC5)cnn34)c2)CC1 [Example 35, tert-butyl 4-(3-(3-(piperidine-1-carbonyl)pyrazolo[1,5-a]pyridin-7-yl)benzoyl)piperazine-1-carboxylate]"
14,≤ 100,"O=C(c1cnn2c(-c3ccc(C(F)(F)F)nc3Cl)cccc12)N1CCCCC1 [Example 272, (7-(2-chloro-6-(trifluoromethyl)pyridin-3-yl)pyrazolo[1,5-a]pyridin-3-yl)(piperidin-1-yl)methanone]"
15,≤ 100,"Cn1nccc1-c1cccc2c(C(=O)N3CCCCC3)cnn12 [Example 25, (7-(1-methyl-1H-pyrazol-5-yl)pyrazolo[1,5-a]pyridin-3-yl)(piperidin-1-yl)methanone]"
16,≤ 100,"O=C(c1cnc2c(-c3cccc(Cl)c3)cccn12)N1CCCCC1 [Example 162, (8-(3-chlorophenyl)imidazo[1,2-a]pyridin-3-yl)(piperidin-1-yl)methanone]"
17,≤ 100,"O=C(c1cc2nc(-c3ccc4cn[nH]c4c3)ccc2[nH]1)N1CCCCC1 [Example 190, (5-(1H-indazol-6-yl)-1H-pyrrolo[3,2-b]pyridin-2-yl)(piperidin-1-yl)methanone]"
18,≤ 100,"O=C(c1cnn2c(-c3ccc4ccccc4c3)cccc12)N1CCCCC1 [Example 129, (7-(naphthalen-2-yl)pyrazolo[1,5-a]pyridin-3-yl)(piperidin-1-yl)methanone]"
19,≤ 100,"Nc1ccc(-c2cccc3c(C(=O)N4CCCCC4)cnn23)cc1 [Example 14, (7-(4-aminophenyl)pyrazolo[1,5-a]pyridin-3-yl)(piperidin-1-yl)methanone]"
20,≤ 100,"O=C(c1cnn2cc(-c3cccc(Cl)c3)ccc12)N1CCCCC1 [Example 170, (6-(3-chlorophenyl)pyrazolo[1,5-a]pyridin-3-yl)(piperidin-1-yl)methanone]"
21,≤ 100,"O=C(Nc1cccnc1)c1ccc(-c2cccc3c(C(=O)N4CCCCC4)cnn23)cc1 [Example 71, 4-(3-(piperidine-1-carbonyl)pyrazolo[1,5-a]pyridin-7-yl)-N-(pyridin-3-yl)benzamide]"
